For experiment [1], the system named is Mus musculus. Briefly: Antinociceptive activity in Swiss mouse assessed as inhibition of acetic acid-induced abdominal constriction at 10 mg/kg administered 30 to 60 mins prior to acetic acid challenge measured over 20 mins by writhing test. It counts as functional, Abdomen. Background: An intraperitoneal irritant provokes the stretching counted in writhing tests.

For experiment [2], the system named is Mus musculus. In words: Antinociceptive activity in Swiss mouse assessed as inhibition of acetic acid-induced abdominal constriction administered 30 to 60 mins prior to acetic acid challenge measured over 20 mins by writhing test. The experiment is classed as functional. Conditions: Abdomen; for ED50: read-out: ID50 (the source's name).
Experiment [3] concerns Mus musculus. Briefly: Antinociceptive activity in Swiss mouse assessed as inhibition of acetic acid-induced abdominal constriction at 30 mg/kg administered 30 to 60 mins prior to acetic acid challenge measured over 20 mins by writhing test. The experiment is classed as functional, Abdomen.

We go through three compounds from ChEMBL document CHEMBL2163320, “Benzofuranones as potential antinociceptive agents: structure-activity relationships” (2012).

As for `COc1ccc(C(=O)CC2OC(=O)c3ccccc32)cc1OC` (configuration not stated), in the experiment on Mus musculus [1], the Imax worked out at 49.4%.
Consider `O=C(CC1OC(=O)c2ccccc21)c1ccc(Cl)cc1` (configuration not stated), for which the Imax in the experiment with Mus musculus [1] is on record as 73.5%. In addition, in the experiment with Mus musculus [2], the inhibition entry is “Dose-dependent effect” and the ED50 is 33.7 µmol/kg. For the same compound, the Imax in the experiment on Mus musculus [3] worked out at 97.7%.
`O=C(CC1OC(=O)c2ccccc21)c1ccc(Cl)c(Cl)c1` (configuration not stated): in the experiment on Mus musculus [2], the ED50 turned out to be 34.6 µmol/kg. For the same compound, the Imax with Mus musculus [3] is listed as 90.7%.
